{"source": "patent US11576913B2", "about": "(priority 2018, dated 2023)", "key": {"[1]": {"test_system": "healthy, non-dependent, recreational sedative users", "assay": "Human abuse potential study, Drug Liking VAS", "assay_type": "in vivo", "settings": "for Drug Liking VAS - EMAX LSMean: N = 50, 100 point bipolar scale; for Drug liking from placebo, Triazolam 1 mg compared with Triazolam 0.5 mg (words): 1 mg vs 0.5 mg", "method": "This study was designed as a randomized, single-dose, double-blinded, double dummy, crossover study. The study population was healthy, nondependent recreational polydrug users with a history of Central Nervous System (CNS) depressant use.\nSubjects were screened no more than 28 days before check-in of period 1. Study drug was administered in each period according to the study randomization schedule. During Qualification, there was a minimum 24 hour washout period between each study drug administration. During the Treatment phase, there was a minimum 48-hour washout period between each study drug administration. Subjects were confined to the unit the day prior to, and for at least approximately 24 hours following, study drug administration during each period. If subjects were discharged between treatment periods, subjects returned to the unit the day prior to dosing.\nThe Qualification Phase was designed to ensure that polydrug abusing subjects with self-reported recreational CNS depressant/sedative drug experience were able to tolerate and discriminate between orally administered triazolam tablets and placebo as well as to report positive subjective effects of the drug in a controlled laboratory setting. This phase was also used to exclude “placebo responders”, i.e., subjects who report subjective effects of placebo. This phase also helped familiarize subjects with, and trained them in the use of, various scales and questionnaires that measure subjective effects.\nThe comparators in an abuse potential study are typically controlled substances from the same pharmacologic class as the investigational drug. However, Compound (1C) is a novel drug class for which no controlled substances/drugs of abuse are available for comparison. […] There was no evidence of other effects of interest to abusers, such as perceptual disturbances or stimulation. […] Placebo control was used to establish the frequency and magnitude of changes in clinical endpoints that may occur in the absence of active treatment as well as to minimize subject and investigator bias.\nIn all of the study phases, treatments were blinded to the greatest extent possible to reduce potential bias during data collection and evaluation of clinical endpoints. Because study subjects were recreational drug users and familiar with the effects of the drug substances being studied, the double-dummy technique was be used in the Treatment Phase to maintain blinding. Subjects received tablets orally in each treatment period. Placebo was matched in size and shape to each of the tablet types, and a method to blind subjects will be employed.\nFor each phase, subjects received treatments according to the randomization schema. During the Treatment Phase, subjects were be randomized to 1 of sequences in a 6×6 Williams square crossover design.\nCompound (1C) was administered orally in an immediate release tablet comprising the pharmaceutically acceptable excipients croscarmellose sodium (FMC Health and Nutrition, Philadelphia, Pa.), hydroxypropylcellulose (Ashland Inc., Covington, Ky.), microcrystalline cellulose (Dupont, Chicago, Ill.), mannitol (SPI Pharma, Wilmington, Del.), magnesium stearate (PlusPharma Inc., Vista, Calif.), and sodium lauryl sulfate (BASF Corp, Upper St. Clair, Pa.). […] Placebo tablets matching the Compound (1C) tablets were orally administered in the same way. The placebo tablets comprised the above-described pharmaceutically acceptable excipients but with no Compound (1C). Triazolam was administered at a dose of 0.5 or 1 mg. Trial endpoints are provided below.\nPeak Maximum Effect (Emax) for Drug Liking (“at this moment”) visual analog scale (“VAS”), was measured by study participants providing a score on a 100 point bipolar scale with 100 as strong liking, 50 as the neutral point of neither liking nor disliking, and 0 as strong disliking. […]"}, "[2]": {"test_system": "healthy, non-dependent, recreational sedative users", "assay": "Human abuse potential study, adverse events and tolerability", "assay_type": "in vivo", "settings": "N = 50", "method": "Adverse events were coded to MedDRA terms. Data for AEs were analyzed using the treatment-emergent signs and symptoms (TESS) philosophy. Treatment-emergent signs and symptoms are defined as AEs that: • Emerge during treatment, having been absent at pretreatment; or • Reemerge during treatment, having been present at pretreatment but stopped prior to treatment; or • Worsen in intensity during treatment relative to the pretreatment state, when the AE is continuous.\nSubjects were counted only once in the incidence count for a specific MedDRA Preferred Term, although a MedDRA Preferred Term might be reported more than once for a particular subject. Separate summaries will be provided for Treatment-emergent AEs (“TEAEs”) by maximum intensity (mild, moderate, severe) and relationship (yes, no) to study drug. A TEAE was considered related to study drug if the investigator reported the event to be “definitely, probably, possibly, or unlikely” related to treatment on the CRF."}, "[3]": {"settings": "triazolam tablets administered orally; cited from earlier work"}}, "data": [{"smiles": "Cc1nnc2n1-c1ccc(Cl)cc1C(c1ccccc1Cl)=NC2", "note": "[Triazolam, triazolam, reference compound]", "values": [{"measurement": "Drug Liking VAS - EMAX Diff from Placebo LSMean", "setting": "[1]; 0.5 mg", "result": 20.4, "unit": "points"}, {"measurement": "Drug liking compared with placebo (words)", "setting": "[1]; 0.5 mg", "result": "significant"}, {"measurement": "Drug Liking VAS - EMAX LSMean", "setting": "[1]; 0.5 mg single oral dose", "result": 75.5}, {"measurement": "Drug liking compared with placebo (words)", "setting": "[1]; 0.5 mg, listed as triazolam", "result": "significantly greater than placebo"}, {"measurement": "Drug Liking VAS - EMAX Diff from Placebo LSMean", "setting": "[1]; 1 mg", "result": 23.5, "unit": "points"}, {"measurement": "Drug liking compared with placebo (words)", "setting": "[1]; 1 mg", "result": "significant"}, {"measurement": "Drug Liking VAS - EMAX LSMean", "setting": "[1]; 1 mg single oral dose", "result": 78.6}, {"measurement": "Drug liking from placebo, Triazolam 1 mg compared with Triazolam 0.5 mg (words)", "setting": "[1]", "result": "Triazolam 1 mg had greater drug liking from"}, {"measurement": "Drug liking from placebo, Triazolam 1 mg compared with Triazolam 0.5 mg (words)", "setting": "[1]; listed as triazolam", "result": "greater drug liking from placebo than triazolam 0.5 mg"}, {"measurement": "Drug liking compared with placebo (words)", "setting": "[1]; 1 mg, listed as triazolam", "result": "significantly greater than placebo"}, {"measurement": "Amnesia", "setting": "[2]; 0.5 mg", "result": "3 (6) n (%)"}, {"measurement": "Ataxia", "setting": "[2]; 0.5 mg", "result": "21 (42) n (%)"}, {"measurement": "Diplopia", "setting": "[2]; 0.5 mg", "result": "4 (8) n (%)"}, {"measurement": "Dizziness", "setting": "[2]; 0.5 mg", "result": "7 (14) n (%)"}, {"measurement": "Euphoric mood", "setting": "[2]; 0.5 mg", "result": "1 (2) n (%)"}, {"measurement": "Headache", "setting": "[2]; 0.5 mg", "result": "2 (4) n (%)"}, {"measurement": "Hiccups", "setting": "[2]; 0.5 mg", "result": "10 (20) n (%)"}, {"measurement": "Nausea", "setting": "[2]; 0.5 mg", "result": "0 n (%)"}, {"measurement": "Somnolence", "setting": "[2]; 0.5 mg", "result": "45 (90) n (%)"}, {"measurement": "Vision blurred", "setting": "[2]; 0.5 mg", "result": "3 (6) n (%)"}, {"measurement": "Amnesia", "setting": "[2]; 1 mg", "result": "12 (24) n (%)"}, {"measurement": "Ataxia", "setting": "[2]; 1 mg", "result": "28 (56) n (%)"}, {"measurement": "Diplopia", "setting": "[2]; 1 mg", "result": "5 (10) n (%)"}, {"measurement": "Dizziness", "setting": "[2]; 1 mg", "result": "6 (12) n (%)"}, {"measurement": "Euphoric mood", "setting": "[2]; 1 mg", "result": "2 (4) n (%)"}, {"measurement": "Headache", "setting": "[2]; 1 mg", "result": "0 n (%)"}, {"measurement": "Hiccups", "setting": "[2]; 1 mg", "result": "14 (28) n (%)"}, {"measurement": "Nausea", "setting": "[2]; 1 mg", "result": "1 (2) n (%)"}, {"measurement": "Somnolence", "setting": "[2]; 1 mg", "result": "49 (98) n (%)"}, {"measurement": "Vision blurred", "setting": "[2]; 1 mg", "result": "2 (4) n (%)"}, {"measurement": "Time to maximum concentration", "setting": "[3]", "result": "~1.3", "unit": "h"}]}]}
